Source: US9878986B2, “Compounds for selective histone deacetylase inhibitors, and pharmaceutical composition comprising the same” (CHONG KUN DANG PHARMACEUTICAL CORP., priority 2013, dated 2018)

How the values were obtained:
HDAC1 = HDAC1 (Homo sapiens, UniProt Q13547); assay: Test of HDAC activities, HDAC1 Fluorimetric Drug Discovery Assay Kit; assay type: biochemical; set-up: purchased Enzolifesciences BML-AK511; settings: samples at 100, 1000, 10000 nM; 37° C. 60 minutes; fluorescence Ex 390, Em 460; read-out: HDAC inhibitory activities, HDAC1
HDAC1, sequence (Q13547 whole entry): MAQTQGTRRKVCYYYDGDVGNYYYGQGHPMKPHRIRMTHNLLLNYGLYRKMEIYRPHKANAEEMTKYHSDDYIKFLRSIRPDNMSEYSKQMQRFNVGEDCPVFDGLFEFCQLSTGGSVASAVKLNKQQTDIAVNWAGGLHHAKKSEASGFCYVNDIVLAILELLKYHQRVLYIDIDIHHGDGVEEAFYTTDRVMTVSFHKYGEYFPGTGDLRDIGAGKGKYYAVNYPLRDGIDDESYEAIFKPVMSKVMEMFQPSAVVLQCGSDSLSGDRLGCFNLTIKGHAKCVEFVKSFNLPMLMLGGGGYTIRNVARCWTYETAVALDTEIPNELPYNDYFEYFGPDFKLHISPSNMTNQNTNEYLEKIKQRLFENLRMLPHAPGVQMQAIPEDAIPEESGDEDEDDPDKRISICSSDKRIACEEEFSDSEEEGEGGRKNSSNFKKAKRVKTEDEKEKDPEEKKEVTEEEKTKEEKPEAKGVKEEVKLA
How it was run: (§1)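 HDAC1 tested at 100, 1000 and 10000 nM; recombinant human HDAC6 at 0.1, 1, 10, 100 and 1000 nM. Reaction 60 min at 37° C, then developer for 30 min at 37° C; fluorescence read at Ex 390/Em 460.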

HDAC 6 = target: T1, HDAC 6 (Homo sapiens, UniProt Q9UBN7); assay: Test of HDAC activities, HDAC6 (fluorimetric); assay type: biochemical; set-up: purchased Calbiochem 382180; settings: samples at 0.1, 1, 10, 100, 1000 nM; 37° C. 60 minutes; fluorescence Ex 390, Em 460; read-out: HDAC inhibitory activities, HDAC6
T1 sequence (Q9UBN7 1-1215): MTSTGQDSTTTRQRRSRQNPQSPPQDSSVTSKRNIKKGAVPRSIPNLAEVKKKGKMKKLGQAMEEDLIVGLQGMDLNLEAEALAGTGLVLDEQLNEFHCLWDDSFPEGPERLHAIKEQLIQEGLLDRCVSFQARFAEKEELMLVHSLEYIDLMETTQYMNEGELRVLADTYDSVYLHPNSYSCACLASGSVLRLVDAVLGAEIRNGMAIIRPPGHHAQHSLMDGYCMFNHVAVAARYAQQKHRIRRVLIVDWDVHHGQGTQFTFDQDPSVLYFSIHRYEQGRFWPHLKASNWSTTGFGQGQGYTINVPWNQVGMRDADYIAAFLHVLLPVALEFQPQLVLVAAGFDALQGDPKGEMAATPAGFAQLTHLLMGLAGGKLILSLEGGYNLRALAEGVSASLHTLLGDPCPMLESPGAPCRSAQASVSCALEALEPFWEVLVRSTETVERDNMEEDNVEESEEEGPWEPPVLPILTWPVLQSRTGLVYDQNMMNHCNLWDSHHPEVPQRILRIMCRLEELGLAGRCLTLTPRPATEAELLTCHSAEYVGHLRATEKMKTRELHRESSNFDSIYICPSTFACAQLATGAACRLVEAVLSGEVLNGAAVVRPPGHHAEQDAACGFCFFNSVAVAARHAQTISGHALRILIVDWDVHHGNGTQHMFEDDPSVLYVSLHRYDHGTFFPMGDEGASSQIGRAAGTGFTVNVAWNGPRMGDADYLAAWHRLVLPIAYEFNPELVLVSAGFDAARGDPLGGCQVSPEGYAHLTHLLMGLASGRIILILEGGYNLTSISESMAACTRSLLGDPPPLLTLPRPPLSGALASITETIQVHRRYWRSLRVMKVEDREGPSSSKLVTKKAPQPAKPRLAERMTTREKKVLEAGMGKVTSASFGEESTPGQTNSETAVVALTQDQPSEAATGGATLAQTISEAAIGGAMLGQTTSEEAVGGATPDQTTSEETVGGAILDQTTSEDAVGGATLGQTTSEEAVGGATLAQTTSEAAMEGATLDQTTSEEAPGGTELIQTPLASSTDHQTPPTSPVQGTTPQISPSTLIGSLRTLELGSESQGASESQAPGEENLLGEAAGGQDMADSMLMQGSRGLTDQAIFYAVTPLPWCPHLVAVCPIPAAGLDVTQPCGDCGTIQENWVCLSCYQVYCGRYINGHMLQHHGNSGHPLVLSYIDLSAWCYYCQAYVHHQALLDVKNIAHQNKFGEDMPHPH
How it was run: as §1

IC50 (HDAC1) [µM] | IC50 (HDAC 6) [µM] | Structure (SMILES)
0.427 | 0.028 | CC(C)(O)CN1CCC(c2cccc(N(Cc3ccc(C(=O)NO)cc3)C(=O)N3CCOCC3)c2)CC1 [Compound 517, N-(3-(1-(2-hydroxy-2-methylpropyl)piperidine-4-yl)phenyl)-N-(4-(hydroxycarbamoyl)benzyl)morpholine-4-carboxamide]
0.495 | 0.014 | CC(C)(F)CN1CCC(c2cccc(N(Cc3ccc(C(=O)NO)cc3)C(=O)N3CCOCC3)c2)CC1 [Compound 518, N-(3-(1-(2-fluoro-2-methylpropyl)piperidine-4-yl)phenyl)-N-(4-(hydroxycarbamoyl)benzyl)morpholine-4-carboxamide]
0.574 | 0.002 | CC(=O)N1CCN(C(=O)N(Cc2ccc(C(=O)NO)cc2)c2cccc(F)c2)CC1 [Compound 529, 4-acetyl-N-(3-fluorophenyl)-N-(4-(hydroxycarbamoyl)benzyl)piperazine-1-carboxamide]
0.161 | 0.0014 | O=C(NO)c1ccc(CN(C(=O)N2CCOCC2)c2cccc(F)c2)cc1 [Compound 530, N-(3-fluorophenyl)-N-(4-(hydroxycarbamoyl)benzyl)morpholine-4-carboxamide]
1.82 | 0.0051 | CC(C)(F)CN1CCN(C(=O)N(Cc2ccc(C(=O)NO)cc2)c2cccc(C(F)(F)F)c2)CC1 [Compound 531, 4-(2-fluoro-2-methylpropyl)-N-(4-(hydroxycarbamoyl)benzyl)-N-(3-(trifluoromethyl)phenyl)piperazine-1-carboxamide]
1.89 | 0.0045 | O=C(NO)c1ccc(CN(C(=O)N2CCOCC2)c2ccc(Cl)cn2)cc1 [Compound 533, N-(5-chloropyridin-2-yl)-N-(4-(hydroxycarbamoyl)benzyl)morpholine-4-carboxamide]
0.447 | 0.009 | O=C(NO)c1ccc(CN(C(=O)N2CCN(CCN3CCOCC3)CC2)c2ccc(C(F)(F)F)cc2)cc1 [Compound 543, N-(4-(hydroxycarbamoyl)benzyl)-4-(2-morpholinoethyl)-N-(4-(trifluoromethyl)phenyl)piperazine-1-carboxamide]

Further lines, the compound ahead of its results:

Structure (SMILES) | IC50 (HDAC1) [µM] | IC50 (HDAC 6) [µM]
O=C(NO)c1ccc(CN(C(=O)N2CCC(O)CC2)c2cccc(C3=CCOCC3)c2)c(F)c1 [Compound 514, N-(3-(3,6-dihydro-2H-pyran-4-yl)phenyl)-N-(2-fluoro-4-(hydroxycarbamoyl)benzyl)-4-hydroxypiperidine-1-carboxamide] | 1.24 | 0.015
O=C(NO)c1ccc(CN(C(=O)N2CC[C@@H](F)C2)c2ccc(C(F)(F)F)cc2)cc1 [Compound 520, (R)-3-fluoro-N-(4-(hydroxycarbamoyl)benzyl)-N-(4-(trifluoromethyl)phenyl)pyrrolidine-1-carboxamide] | 1.17 | 0.036
O=C(NO)c1ccc(CN(C(=O)N2CC[C@H](F)C2)c2ccc(C(F)(F)F)cc2)cc1 [Compound 521, (S)-3-fluoro-N-(4-(hydroxycarbamoyl)benzyl)-N-(4-(trifluoromethyl)phenyl)pyrrolidine-1-carboxamide] | 0.261 | 0.01
O=C(NO)c1ccc(CN(C(=O)N2CCC[C@@H]2CO)c2ccc(C(F)(F)F)cc2)cc1 [Compound 522, (R)—N-(4-(hydroxycarbamoyl)benzyl)-2-(hydroxymethyl)-N-(4-(trifluoromethyl)phenyl)pyrrolidine-1-carboxamide] | 0.177 | 0.011
O=C(NO)c1ccc(CN(C(=O)N2CCOCC2)c2cccc(C(F)(F)F)c2)c(F)c1 [Compound 532, N-(2-fluoro-4-(hydroxycarbamoyl)benzyl)-N-(3-(trifluoromethyl)phenyl)morpholine-4-carboxamide] | 0.577 | 0.0019
O=C(NO)c1ccc(CN(C(=O)N2CCN(c3ccncc3)CC2)c2ccc(C(F)(F)F)cc2)cc1 [Compound 544, N-(4-(hydroxycarbamoyl)benzyl)-4-(pyridin-4-yl)-N-(4-(trifluoromethyl)phenyl)piperazine-1-carboxamide] | 0.503 | 0.021
